Where two headings read alike, the source gives them in different places.
Tests used:
[1] = test system: Nitrogen Oxide (NO) generation; experiment: Inhibition of nitrogen oxide (NO) generation in LPS-treated Raw 264.7 cells (Griess); format: cell-based, mouse; settings: Raw 264.7, LPS 500 ng/ml, 24 hours
Procedure: Raw 264.7 (ATCC TIB71) cells were inoculated in a 96-well plate containing the same medium as used in Experimental Example 1 at the density of 1×10^5 cells/well. The cells were cultured in 5% CO2 at 37° C. for 4 hours to attach the cells onto the plate. The cells were treated with each sample at different concentrations, followed by further culture for 1 hour. […] were treated thereto at the final concentration of 500 ng/ml, followed by further culture for 24 hours. 100 μl of the supernatant was taken and transferred in a new plate, which was mixed with Griess reagent (a mixture of 1% sulfanilamide, 0.1% N-[1-naphthyl]-ethylenediamine dihydrochloride, and 5% phosphoric acid), followed by reaction for 10 minutes. Then, OD540 was measured. NO generation was quantified by using the sodium nitrite standard curve prepared from […] dissolved in the same medium at different concentrations. Considering the NO generation of the inflammation induced macrophages as 100%, the NO generation inhibition rate was calculated and presented in Table 7.

[2] = test system: Raw 264.7 (ATCC TIB71) cells; experiment: Evaluation of cell survival rate of macrophages (MTT); format: cell-based, mouse; settings: Raw 264.7, 10 μM, 24 hours
Procedure: Raw 264.7 (ATCC TIB71) cells, the mouse derived macrophages', were inoculated in a 96-well plate containing DMEM (Dulbecco's modified Eagle medium; Welgene, Korea) supplemented with 10% FBS (Fetal Bovine Serum), 2 mM glutamine, penicillin (100 unit/ml), and streptomycin (100 μg/ml) at the density of 1×10^4 cells/well. The cells were cultured in 5% CO2 at 37° C. for 4 hours to attach the cells onto the plate. Next, the cells were treated with each sample at different concentrations, followed by further culture for 24 hours. To investigate the cell survival rate, 5 mg/ml of MTT (3-(4,5-dimethylthiazol-2-yl)-2,5-diphenyltetrazoliumbromide, Amresco, OH, USA) was distributed thereto (10 μl/well), followed by culture for 4 hours. Then, the supernatant was eliminated. Formazan reduced from MTT by mitochondria was dissolved in 100 μl of DMSO and then OD570 was measured. 0.2% DMSO was used for the negative control.

[3] = test system: interleukin-6 (IL-6) generation; experiment: Inhibition of interleukin-6 (IL-6) generation in LPS-treated Raw 264.7 cells (ELISA); format: cell-based, mouse; settings: Raw 264.7, LPS treated, read-out: Grades of IC50 on IL-6 generation
Procedure: Raw 264.7 cells were distributed by the same manner as described in Experimental Example <2-1>, and IL-6 included in the supernatant treated with each sample at different concentrations was measured by enzyme-linked immunosorbent assay (IL-6 ELISA kit, BD Bioscience, San Diego, Calif.).
(§1) Particularly, 10-fold diluted supernatant was distributed in a 96-well plate on which IL-6 antibody was attached, followed by adhesion for 2 hours. The supernatant remaining after the adhesion was washed with a washing buffer. The detection antibody and HRP were adhered on the washed plate for 1 hour. The remaining antibody was washed. Color development was induced by using TMB substrate. The reaction was terminated with sulfuric acid solution. Then, OD450 was measured. IL-6 in the supernatant was quantified by using the standard curve made with the standard IL-6 included in the kit. IL-6 suppression rate was calculated by measuring the same concentration that could inhibit IL-6 generation up to 50% in the LPS treated group and the results are shown in Table 8.

[4] = test system: Tumor Necrosis Factor Alpha (TNF-alpha); experiment: Inhibition of TNF-alpha generation in LPS-treated Raw 264.7 cells (ELISA); format: cell-based; settings: Mus musculus, RAW264.7; Raw 264.7, LPS treated; read-out: Grades of IC50 on TNF-alpha generation
Procedure: Raw 264.7 cells were distributed by the same manner as described in Experimental Example <2-1>, which were treated with the samples selected due to their high NO and IL-6 suppressing effect at different concentrations. TNF-alpha included in the supernatant was measured by enzyme-linked immunosorbent assay (TNF-alpha ELISA kit, R&D Systems, MN, USA).
as §1, with “100-fold” for “10-fold”, “TNF-alpha” for “IL-6”, “9.” for “8.”

[5] = Rheumatoid arthritis (collagen-induced) model: weight changes; format: in vivo, mouse; settings: DBA/1 CIA mice, 30 mg/kg oral, FIG. 10
Procedure: Bovine type II collagen (100 μg/mouse, Hondrax, Seattle, USA) and complete Freund's adjuvant (Chondrex, Seattle, USA) were intradermally injected in the tail of 7˜9 DBA/1 male mouse. On day 21, 100 μg of bovine type II collagen was mixed with incomplete Freund's adjuvant (IFA), which was injected in the tail of each mouse once again to induce arthritis.

Compound | IC50 ([3]; Mus musculus, RAW264.7) | weight change [5] | Grades of NO generation inhibition rate (%) [1] | Grades of cell survival rate (%, in 10 μM) [2] | IC50 [4] | IC50 [3]
COc1cccc(-c2cc3cc(CCCO)cc(OC)c3o2)c1 [Example 5, 3-(7-methoxy-2-(3-methoxyphenyl)benzofuran-5-yl)propane-1-ol] | 40 to 50 µM |  | C (C: 15<C≤25) | A (A: 90<A≤100) |  | 
COc1cc(CCCO)cc2cc(-c3ccc(N(C)C)cc3)oc12 [Example 9, 3-(2-(4-(dimethylamino)phenyl)-7-methoxybenzofuran-5-yl)propane-1-ol] | 40 to 50 µM |  | C (C: 15<C≤25) | A (A: 90<A≤100) |  | 
COc1ccc(-c2cc3cc(CCCO)cc(OC)c3o2)cc1OC [Example 1, 3-[2-(3,4-dimethoxyphenyl)-7-methoxybenzofuran-5-yl]propane-1-ol] | 10 to 20 µM |  | D (D: 5<D≤15) | A (A: 90<A≤100) | 5 to 10 µM | 
COc1cccc(CCc2cc(CCCO)cc(OC)c2O)c1 [Example 17, 4-(3-hydroxypropyl)-2-methoxy-6-(3-methoxypenethyl)phenol] |  |  | C (C: 15<C≤25) | B (B: 80<B≤90) |  | 40 to 50 µM
COc1cc(CCCO)cc(CCc2ccc(C)cc2)c1O [Example 16, 4-(3-hydroxypropyl)-2-methoxy-6-(4-methylpenethyl)phenol] |  |  | C (C: 15<C≤25) | A (A: 90<A≤100) |  | 30 to 40 µM
COc1cc(CCCO)cc2cc(-c3cccc(C)c3)oc12 [Example 3, 3-(7-methoxy-2-m-tolylbenzofuran-5-yl)propane-1-ol] | 40 to 50 µM |  | A (A: 35<A≤100) | A (A: 90<A≤100) |  | 
COc1ccc(-c2cc3cc(CCCO)cc(OC)c3o2)cc1 [Example 7, 3-(7-methoxy-2-(4-methoxyphenyl)benzofuran-5-yl)propane-1-ol] | 40 to 50 µM |  | D (D: 5<D≤15) | A (A: 90<A≤100) |  | 
COc1cc(CCCO)cc2cc(-c3cc(F)cc(F)c3)oc12 [Example 6, 3-[2-(3,5-difluorophenyl)-7-methoxybenzofuran-5-yl]propane-1-ol] | 10 to 20 µM |  | B (B: 25<B≤35) | A (A: 90<A≤100) | 15 to 17 µM | 
COc1cc(CCCO)cc2cc(-c3cccc(F)c3)oc12 [Example 8, 3-(2-(3-fluorophenyl)-7-methoxybenzofuran-5-yl)propane-1-ol] | 40 to 50 µM |  | C (C: 15<C≤25) | A (A: 90<A≤100) |  | 
COc1ccc(CCc2cc(CCCO)cc(OC)c2O)cc1OC [Example 14, 2-(3,4-dimethoxyphenethyl)-4-(3-hydroxypropyl)-6-methoxyphenol] |  |  | C (C: 15<C≤25) | C (C: 70<C≤80) |  | 
COc1ccc(-c2cc3cc(CCCO)cc(OC)c3o2)c(C)c1 [Example 2, 3-(7-methoxy-2-(4-methoxy-2-methylphenyl)benzofuran-5-yl)propane-1-ol] | ≤ 10 µM |  | A (A: 35<A≤100) | A (A: 90<A≤100) | 3 to 5 µM | 

The next lines start with results.

IC50 ([3]; Mus musculus, RAW264.7) | weight change [5] | Compound | Grades of NO generation inhibition rate (%) [1] | Grades of cell survival rate (%, in 10 μM) [2] | IC50 [4] | IC50 [3]
≤ 10 µM | no weight change observed | COc1cc(CCCO)cc2cc(-c3ccc(O)c(O)c3)oc12 [Example 25, 4-(5-(3-hydroxypropyl)-7-methoxybenzofuran-2-yl)benzene-1,2-diol] | A (A: 35<A≤100) | A (A: 90<A≤100) | 1 to 3 µM | 
20 to 30 µM |  | COc1ccc(-c2cc3cc(CCCO)cc(O)c3o2)cc1OC [Example 27, 2-(3,4-dimethoxyphenyl)-5-(3-hydroxypropyl)benzofuran-7-ol] | D (D: 5<D≤15) | B (B: 80<B≤90) |  | 
40 to 50 µM |  | COc1ccc(-c2cc3cc(CO)cc(OC)c3o2)cc1OC [Example 18, [2-(3,4-dimethoxyphenyl)-7-methoxybenzofuran-5-yl]methanol] | C (C: 15<C≤25) | A (A: 90<A≤100) |  | 
≤ 10 µM |  | COc1cc(-c2cc3cc(CCCO)cc(OC)c3o2)cc(OC)c1O [Example 26, 4-(5-(3-hydroxypropyl)-7-methoxybenzofuran-2-yl)-2,6-dimethoxyphenol] | A (A: 35<A≤100) | A (A: 90<A≤100) | 1 to 3 µM | 
20 to 30 µM |  | COc1ccc(-c2cc3cc(CCCOC(C)=O)cc(OC)c3o2)cc1OC [Example 28, 3-(2-(3,4-dimethoxyphenyl)-7-methoxybenzofuran-5-yl)propyl acetate] | B (B: 25<B≤35) | A (A: 90<A≤100) | 1 to 3 µM | 
≤ 10 µM |  | COc1cc(-c2cc3cc(CCCO)cc(OC)c3o2)ccc1O [Example 22, 4-(5-(3-hydroxypropyl)-7-methoxybenzofuran-2-yl)-2-methoxyphenol] | A (A: 35<A≤100) | A (A: 90<A≤100) | 3 to 5 µM | 
40 to 50 µM |  | COc1ccc(-c2cc3cc(CCCO)cc(OC)c3o2)cc1O [Example 23, 5-(5-(3-hydroxypropyl)-7-methoxybenzofuran-2-yl)-2-methoxyphenol] | C (C: 15<C≤25) | B (B: 80<B≤90) |  | 
10 to 20 µM |  | COc1cc(CCCO)cc2cc(-c3cc(O)cc(O)c3)oc12 [Example 24, 5-(5-(3-hydroxypropyl)-7-methoxybenzofuran-2-yl)benzene-1,3-diol] | A (A: 35<A≤100) | A (A: 90<A≤100) | 5 to 10 µM | 
20 to 30 µM |  | COc1ccc(-c2cc3cc(CCO)cc(OC)c3o2)cc1OC [Example 20, 2-[2-(3,4-dimethoxyphenyl)-7-methoxybenzofuran-5-yl]ethanol] | A (A: 35<A≤100) | B (B: 80<B≤90) |  | 
